Test results reported in patent US20240391862A1, “(1,4,5-TRISUBSTITUTED-1H-PYRAZOL-3-YL)OXY-2-ALKOXY ALKYL ACIDS AND THEIR DERIVATIVES, THEIR SALTS AND THEIR USE AS HERBICIDAL AGENTS” (Bayer AKtiengesellschaft, priority 2021, published 2024).

Key:
[1] = tested on: ZEAMX; assay: Post-emergence herbicidal effect and crop plant compatibility, greenhouse pot test; type: in vivo, Zea mays; conditions: Zea mays, 504 h, one-leaf stage, rated visually after about 3 weeks vs untreated controls; for plant injury at 20 g/ha: read-out: Post-emergence effect at 20 g/ha against ZEAMX in %; for plant injury at 80 g/ha: read-out: Post-emergence effect at 80 g/ha against ZEAMX in %; for plant injury at 320 g/ha: read-out: Post-emergence effect at 320 g/ha against ZEAMX in %
Method in brief: (§1)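 Greenhouse pot plants in sandy loam receive a one-leaf-stage spray at 20 to 320 g/ha. Activity is assessed visually around 3 weeks afterwards on a 0–100% scale, where 100% means the plants have died.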

[2] = tested on: TRZAS; assay: as above; type: in vivo, Triticum aestivum; conditions: for percent crop injury (phytotoxicity) to wheat, post-emergence at 20 g/ha: Triticum aestivum, 504 h, read-out: Post-emergence effect at 20 g/ha against TRZAS in %; for Post-emergence effect against TRZAS: visual rating about 3 weeks after treatment, crop plant
From the text: • ALOMY: Alopecurus myosuroides SETVI: Setaria viridis • AVEFA: Avena fatua POLCO: Fallopia convolvulus • AMARE: Amaranthus retroflexus ECHCG: Echinochloa crus-galli • LOLRJ: Lolium rigidum STEME: Stellaria media • VERPE: Veronica persica MATIN: Tripleurospermum inodorum • DIGSA: Digitaria sanguinalis ABUTH: Abutylon threophrasti • TRZAS: Triticum aestivum VIOTR: Viola tricolor • BRSNW: Brassica napus ZEAMX: Zea mays • PHBPU: Ipomoea purpurea GLXMA: Glycine max • ORYSA: Oryza sativa HORMU: Hordeum murinum
Seeds of monocotyledonous and dicotyledonous weeds and crop plants are placed in sandy loam in plastic or organic planting pots, covered with soil and cultivated in a greenhouse under controlled growth conditions. 2 to 3 weeks after sowing, the trial plants are treated at the one-leaf stage. The compounds of the invention, formulated in the form of wettable powders (WP) or as emulsion concentrates (EC), are then sprayed onto the green parts of the plants as aqueous suspension or emulsion with addition of 0.5% additive at a water application rate of 600 l/ha (converted). After the test plants have been kept in the greenhouse under optimum growth conditions for about 3 weeks, the activity of the preparations is rated visually in comparison to untreated controls. For example, 100% activity=the plants have died, 0% activity=like control plants.
Tables 20a to 38c below show the effects/crop compatibilities of selected compounds of the general formula (I) on various harmful plants at an application rate corresponding to 20 to 320 g/ha, which were obtained by the trial procedure specified above.

[3] = tested on: ABUTH; assay: Post-emergence herbicidal effect, greenhouse pot test; type: in vivo, Abutilon theophrasti; conditions: 320 g/ha, visual rating about 3 weeks after treatment
Method in brief: as §1

[4] = tested on: AVEFA; assay: as above; type: in vivo, Avena fatua; conditions: 320 g/ha, visual rating about 3 weeks after treatment
Method in brief: as §1

[5] = tested on: ECHCG; assay: as above; type: in vivo, Echinochloa crus-galli; conditions: 320 g/ha
Method in brief: as §1

[6] = tested on: PHBPU; assay: as above; type: in vivo, Ipomoea purpurea; conditions: 320 g/ha
Method in brief: as §1

[7] = tested on: SETVI; assay: as above; type: in vivo, Setaria viridis; conditions: 320 g/ha
Method in brief: as §1

[8] = tested on: VERPE; assay: as above; type: in vivo, Veronica persica; conditions: 320 g/ha
Method in brief: as §1

[9] = 20 g/ha, one-leaf stage, rated visually after about 3 weeks vs untreated controls

SMILES	plant injury at 20 g/ha [1] [%]	plant injury at 80 g/ha [1] [%]	plant injury at 320 g/ha [1] [%]	percent crop injury (phytotoxicity) to wheat, post-emergence at 20 g/ha [2, 9] [%]	Post-emergence effect at 20 g/ha against TRZAS in % [2, 9] [%]	Post-emergence effect against TRZAS ([2]; 80 g/ha) [%]	Post-emergence effect against TRZAS ([2]; 320 g/ha) [%]	Post-emergence effect against ABUTH [3] [%]	Post-emergence effect against AVEFA [4] [%]	Post-emergence effect against ECHCG in % [5] [%]	Post-emergence effect against PHBPU in % [6] [%]	Post-emergence effect against SETVI in % [7] [%]	Post-emergence effect against VERPE in % [8] [%]
COC(Oc1nn(-c2ncccc2F)c(-c2ccc(F)nc2)c1Cl)C(=O)O (centres unmarked) [Example I-44]	0	0	0	0	–	–	–	–	–	–	–	–	–
CCOC(Oc1nn(-c2ccccc2F)c(-c2ccc(F)nc2)c1Cl)C(=O)O (centres unmarked) [Example I-52]	0	0	0	0	–	–	–	–	–	–	–	–	–
COC(=O)C(OC)Oc1nn(-c2cccc(C)c2F)c(-c2ccnc(F)c2)c1Br (centres unmarked) [Example I-115]	–	–	–	–	0	10	20	80	80	90	80	90	80
